# Activity calls are given as the source filed them.
# What was measured:
# [1] = biological target: T1, Type-1 angiotensin II receptor (Homo sapiens, UniProt P30556); assay: antagonism of angiotensin II type 1 receptor – cell-based, uHTS hits, selectivity assay for APJ receptor antagonist project, dose response (AID 463214); format: functional;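 also: antagonist potency against angiotensin II stimulated AT1 response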
# T1 sequence (P30556 whole entry): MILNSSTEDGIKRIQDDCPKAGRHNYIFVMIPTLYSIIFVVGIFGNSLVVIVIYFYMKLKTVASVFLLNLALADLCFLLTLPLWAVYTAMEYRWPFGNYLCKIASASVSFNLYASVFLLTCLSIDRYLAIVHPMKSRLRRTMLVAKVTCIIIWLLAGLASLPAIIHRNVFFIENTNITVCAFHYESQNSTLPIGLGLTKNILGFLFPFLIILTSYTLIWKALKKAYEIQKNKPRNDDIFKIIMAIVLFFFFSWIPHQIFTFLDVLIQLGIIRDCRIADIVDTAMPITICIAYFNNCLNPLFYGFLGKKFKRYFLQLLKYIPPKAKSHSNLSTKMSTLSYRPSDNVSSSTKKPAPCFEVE
# Beta-galactosidase = Beta-galactosidase (Escherichia coli, UniProt Q8VNN2); assay: PubChem AID 485352; format: functional
# Beta-galactosidase, sequence (Q8VNN2 whole entry): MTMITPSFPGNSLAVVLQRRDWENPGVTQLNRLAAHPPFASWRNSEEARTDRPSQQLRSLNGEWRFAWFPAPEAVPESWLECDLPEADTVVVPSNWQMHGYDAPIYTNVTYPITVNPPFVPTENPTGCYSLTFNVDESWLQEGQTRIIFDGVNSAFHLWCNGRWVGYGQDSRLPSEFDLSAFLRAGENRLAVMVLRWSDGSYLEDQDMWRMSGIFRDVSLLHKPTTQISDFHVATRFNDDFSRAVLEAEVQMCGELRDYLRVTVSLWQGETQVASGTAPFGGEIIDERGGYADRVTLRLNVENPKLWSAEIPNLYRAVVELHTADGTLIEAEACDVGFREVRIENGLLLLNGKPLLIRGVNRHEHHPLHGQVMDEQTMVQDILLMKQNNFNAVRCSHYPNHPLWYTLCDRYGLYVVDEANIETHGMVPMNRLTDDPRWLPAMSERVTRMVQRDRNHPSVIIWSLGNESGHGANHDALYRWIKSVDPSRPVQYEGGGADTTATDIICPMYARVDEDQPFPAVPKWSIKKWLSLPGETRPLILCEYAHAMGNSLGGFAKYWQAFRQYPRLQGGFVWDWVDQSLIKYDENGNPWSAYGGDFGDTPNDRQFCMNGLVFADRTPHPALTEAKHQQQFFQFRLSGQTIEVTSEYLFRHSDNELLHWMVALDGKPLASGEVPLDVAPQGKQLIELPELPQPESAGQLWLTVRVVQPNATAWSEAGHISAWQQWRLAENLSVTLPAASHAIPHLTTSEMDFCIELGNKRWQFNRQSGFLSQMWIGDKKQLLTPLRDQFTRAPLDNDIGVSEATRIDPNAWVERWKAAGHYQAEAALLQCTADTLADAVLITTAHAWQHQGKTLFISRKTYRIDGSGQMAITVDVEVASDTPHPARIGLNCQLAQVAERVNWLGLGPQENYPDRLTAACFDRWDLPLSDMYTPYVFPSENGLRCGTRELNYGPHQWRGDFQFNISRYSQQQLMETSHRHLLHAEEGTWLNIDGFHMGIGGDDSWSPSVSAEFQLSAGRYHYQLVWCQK
# Phospholipase A2 = Phospholipase A2 (Homo sapiens, UniProt P04054); format: functional;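 also: confirmatory dose-response counterscreen on phospholipase A2, testing hits that came from an ultra-high-throughput screen for ATG4B inhibitors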
# Phospholipase A2, sequence (P04054 whole entry): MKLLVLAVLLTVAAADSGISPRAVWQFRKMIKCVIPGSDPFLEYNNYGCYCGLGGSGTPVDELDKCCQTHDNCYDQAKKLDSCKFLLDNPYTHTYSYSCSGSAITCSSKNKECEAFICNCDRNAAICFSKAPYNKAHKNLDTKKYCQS
# Cysteine protease ATG4B = Cysteine protease ATG4B (Homo sapiens, UniProt Q9Y4P1); format: functional;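 also: Fluorescence-based dose-response confirmation assay measuring inhibition of ATG4B activity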
# Cysteine protease ATG4B, sequence (Q9Y4P1 whole entry): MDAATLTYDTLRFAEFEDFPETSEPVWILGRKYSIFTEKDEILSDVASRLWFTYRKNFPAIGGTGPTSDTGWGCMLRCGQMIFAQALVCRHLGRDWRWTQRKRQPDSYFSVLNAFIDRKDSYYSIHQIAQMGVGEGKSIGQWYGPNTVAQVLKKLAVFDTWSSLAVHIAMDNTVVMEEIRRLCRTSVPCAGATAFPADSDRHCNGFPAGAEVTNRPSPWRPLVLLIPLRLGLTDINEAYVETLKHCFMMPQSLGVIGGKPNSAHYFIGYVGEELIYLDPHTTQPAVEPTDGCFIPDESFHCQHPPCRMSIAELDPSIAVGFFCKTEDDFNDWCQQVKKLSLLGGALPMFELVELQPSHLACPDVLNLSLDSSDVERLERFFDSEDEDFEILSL
# [2] = biological target: T2, Short transient receptor potential channel 4 (Mus musculus, UniProt Q9QUQ5); assay: block of DAMGO-driven TRPC4 calcium entry – cell-based, HEK293 TRPC4/mu-opioid, Fluo-4 calcium, dose response (AID 434942); format: functional;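 also: potency of inhibitors blocking the TRPC4 calcium response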
# T2 sequence (Q9QUQ5 whole entry): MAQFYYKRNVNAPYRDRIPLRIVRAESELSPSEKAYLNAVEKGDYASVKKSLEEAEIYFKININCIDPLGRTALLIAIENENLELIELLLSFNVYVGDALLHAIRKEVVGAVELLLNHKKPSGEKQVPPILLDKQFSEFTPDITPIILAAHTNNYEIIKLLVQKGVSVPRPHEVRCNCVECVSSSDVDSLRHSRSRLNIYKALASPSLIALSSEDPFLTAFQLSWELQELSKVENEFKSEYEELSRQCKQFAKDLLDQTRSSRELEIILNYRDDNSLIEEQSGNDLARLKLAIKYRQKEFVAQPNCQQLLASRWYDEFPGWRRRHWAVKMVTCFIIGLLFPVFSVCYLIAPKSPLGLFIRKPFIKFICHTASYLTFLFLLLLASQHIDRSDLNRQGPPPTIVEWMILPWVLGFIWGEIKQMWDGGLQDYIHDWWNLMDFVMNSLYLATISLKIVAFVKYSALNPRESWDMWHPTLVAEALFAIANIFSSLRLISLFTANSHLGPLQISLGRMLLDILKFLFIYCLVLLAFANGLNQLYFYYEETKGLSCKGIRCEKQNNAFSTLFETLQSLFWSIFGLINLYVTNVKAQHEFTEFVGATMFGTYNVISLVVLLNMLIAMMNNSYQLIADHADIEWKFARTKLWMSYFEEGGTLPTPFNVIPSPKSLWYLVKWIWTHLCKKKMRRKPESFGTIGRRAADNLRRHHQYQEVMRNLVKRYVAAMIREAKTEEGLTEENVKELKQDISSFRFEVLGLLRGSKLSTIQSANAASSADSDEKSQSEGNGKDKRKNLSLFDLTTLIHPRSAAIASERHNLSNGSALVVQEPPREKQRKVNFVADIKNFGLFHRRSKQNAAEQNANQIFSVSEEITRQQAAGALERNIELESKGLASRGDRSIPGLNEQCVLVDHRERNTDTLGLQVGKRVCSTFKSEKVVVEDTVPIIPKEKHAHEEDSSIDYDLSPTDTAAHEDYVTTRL
# A-375 = assay: MITF: Counter assay: A375 proliferation Measured in Cell-Based System Using Plate Reader - 2084-03_Inhibitor_Dose_DryPowder_Activity. [Related pubchem assays (depositor defined):AID488944]; format: functional; settings: Homo sapiens
# [3] = biological target: T3, Microphthalmia-associated transcription factor (Homo sapiens, UniProt O75030); assay: reducers of TRPM1 reporter luminescence, concentration series – cell-based, SK-MEL-5, cherry-picked, set 3, MITF inhibitor project, dose response (AID 493073); format: functional;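 also: SK-MEL-5 melanoma cells with luciferase driven by the MITF target TRPM1 promoter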
# T3 sequence (O75030 whole entry): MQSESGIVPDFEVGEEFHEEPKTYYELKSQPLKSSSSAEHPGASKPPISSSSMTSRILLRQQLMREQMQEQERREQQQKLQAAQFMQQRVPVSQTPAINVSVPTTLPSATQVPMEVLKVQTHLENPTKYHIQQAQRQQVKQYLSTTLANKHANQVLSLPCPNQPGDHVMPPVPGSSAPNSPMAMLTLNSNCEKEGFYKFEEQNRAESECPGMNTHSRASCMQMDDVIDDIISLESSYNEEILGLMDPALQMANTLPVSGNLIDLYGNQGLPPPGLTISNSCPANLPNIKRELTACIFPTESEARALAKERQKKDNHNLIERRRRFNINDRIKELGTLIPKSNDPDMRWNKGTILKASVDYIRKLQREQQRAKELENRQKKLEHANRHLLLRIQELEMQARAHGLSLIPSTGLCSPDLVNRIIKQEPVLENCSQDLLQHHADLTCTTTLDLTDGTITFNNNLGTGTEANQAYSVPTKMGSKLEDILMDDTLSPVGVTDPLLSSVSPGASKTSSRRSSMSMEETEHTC
# [4] = biological target: Beta-2 adrenergic receptor (Homo sapiens, UniProt P07550); assay: ADRB2 activation measured by internalization – cell-based, FAP fluorogen, flow cytometry, cherry pick 1, dose response (AID 588763); format: functional
# Beta-2 adrenergic receptor, sequence (P07550 whole entry): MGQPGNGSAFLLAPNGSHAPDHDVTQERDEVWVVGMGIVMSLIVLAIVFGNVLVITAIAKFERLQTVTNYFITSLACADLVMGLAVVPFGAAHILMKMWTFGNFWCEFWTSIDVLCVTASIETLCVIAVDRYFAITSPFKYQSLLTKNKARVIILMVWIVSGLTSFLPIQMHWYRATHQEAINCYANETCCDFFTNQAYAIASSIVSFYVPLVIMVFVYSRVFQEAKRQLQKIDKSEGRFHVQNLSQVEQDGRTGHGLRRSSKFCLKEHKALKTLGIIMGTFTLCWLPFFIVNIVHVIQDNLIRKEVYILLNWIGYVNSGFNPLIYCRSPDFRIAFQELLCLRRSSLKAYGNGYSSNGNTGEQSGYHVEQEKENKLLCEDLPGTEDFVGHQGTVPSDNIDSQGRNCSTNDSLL
# [5] = viability of HCT116 lacking mutant beta-catenin – cell-based, human colon tumor, dose response (AID 1045); format: functional;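 also: HCT116 colon tumor cells with beta catenin knocked out; cells exposed to compound for 60 hours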
# [6] = viability of PTEN-deleted HCT116 cells – cell-based, HCT116 PTEN knockout, dose response (AID 1047); format: functional;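 also: HCT116 colon tumor cells with PTEN knocked out; cells exposed to compound for 60 hours before readout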
# INS1 = assay: INS-1E survival protection against cytokine death – cell-based, luminescence, retest, dose response (AID 449756); format: functional; settings: Rattus norvegicus;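 also: cell death triggered by IL-1 beta plus TNF-alpha plus IFN-gamma mixture; protective hits raise ATP signal compared with cytokine alone wells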
# Caspase-3 = biological target: T4, Caspase-3 (Homo sapiens, UniProt P42574); format: functional;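 also: Dose-response selectivity test against caspase-3 for candidate inhibitors of sentrin-specific proteases (SENPs)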
# T4 sequence (P42574 whole entry): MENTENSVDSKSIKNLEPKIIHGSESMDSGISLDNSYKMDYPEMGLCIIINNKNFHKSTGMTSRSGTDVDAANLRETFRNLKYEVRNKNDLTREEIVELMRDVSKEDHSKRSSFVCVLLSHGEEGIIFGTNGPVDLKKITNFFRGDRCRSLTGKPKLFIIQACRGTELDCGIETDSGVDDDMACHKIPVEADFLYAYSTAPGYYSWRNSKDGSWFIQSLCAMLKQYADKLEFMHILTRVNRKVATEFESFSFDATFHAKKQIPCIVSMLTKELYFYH
# [7] = biological target: T5, Sentrin-specific protease 6 (Homo sapiens, UniProt Q9GZR1); format: functional;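 also: Luminescence-based dose-response confirmatory assay of SENP6 inhibition, following up an ultra-high-throughput screen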
# T5 sequence (Q9GZR1 whole entry): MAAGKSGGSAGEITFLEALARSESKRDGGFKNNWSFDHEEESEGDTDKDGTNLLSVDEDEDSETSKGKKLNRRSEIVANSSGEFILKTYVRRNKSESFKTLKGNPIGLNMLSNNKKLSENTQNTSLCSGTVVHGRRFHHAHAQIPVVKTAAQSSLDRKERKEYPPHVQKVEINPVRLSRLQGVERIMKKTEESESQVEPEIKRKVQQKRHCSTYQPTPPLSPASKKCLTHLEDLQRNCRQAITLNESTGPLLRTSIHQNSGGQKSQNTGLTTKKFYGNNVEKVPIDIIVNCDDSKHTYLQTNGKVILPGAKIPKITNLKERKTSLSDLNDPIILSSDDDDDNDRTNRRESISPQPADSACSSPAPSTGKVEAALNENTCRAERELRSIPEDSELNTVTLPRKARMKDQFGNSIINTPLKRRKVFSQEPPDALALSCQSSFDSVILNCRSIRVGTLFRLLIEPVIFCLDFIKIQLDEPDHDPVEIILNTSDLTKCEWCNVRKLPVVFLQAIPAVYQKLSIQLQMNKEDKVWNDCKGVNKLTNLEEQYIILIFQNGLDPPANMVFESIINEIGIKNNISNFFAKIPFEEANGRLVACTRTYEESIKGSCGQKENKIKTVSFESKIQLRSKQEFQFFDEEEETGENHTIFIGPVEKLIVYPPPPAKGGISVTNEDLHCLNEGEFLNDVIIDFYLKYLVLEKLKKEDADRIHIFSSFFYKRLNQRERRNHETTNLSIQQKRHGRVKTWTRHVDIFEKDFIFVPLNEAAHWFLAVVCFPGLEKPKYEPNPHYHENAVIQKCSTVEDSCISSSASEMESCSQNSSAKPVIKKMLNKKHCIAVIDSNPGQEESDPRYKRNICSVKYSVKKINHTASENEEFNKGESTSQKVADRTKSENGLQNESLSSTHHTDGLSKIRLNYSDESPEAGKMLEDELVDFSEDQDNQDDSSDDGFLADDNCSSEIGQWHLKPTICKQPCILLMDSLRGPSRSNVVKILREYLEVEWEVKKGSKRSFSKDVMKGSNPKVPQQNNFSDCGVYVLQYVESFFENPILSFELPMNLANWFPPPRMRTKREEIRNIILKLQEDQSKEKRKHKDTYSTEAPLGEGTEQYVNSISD
# [8] = biological target: T6, Sentrin-specific protease 8 (Homo sapiens, UniProt Q96LD8); format: functional;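 also: luminescence read-out of SENP8 inhibition, dose-response confirmation following an ultra-high-throughput screen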
# T6 sequence (Q96LD8 whole entry): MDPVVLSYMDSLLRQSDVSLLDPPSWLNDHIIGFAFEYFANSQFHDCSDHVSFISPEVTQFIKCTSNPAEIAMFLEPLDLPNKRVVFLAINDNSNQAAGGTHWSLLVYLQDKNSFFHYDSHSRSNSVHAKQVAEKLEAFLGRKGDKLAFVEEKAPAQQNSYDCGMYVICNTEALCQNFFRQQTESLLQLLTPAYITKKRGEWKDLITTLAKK
# [9] = biological target: T7, Sentrin-specific protease 7 (Homo sapiens, UniProt Q9BQF6); format: functional;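 also: Luminescence-based dose-response confirmation of ultra-high-throughput screening hits, measuring inhibition of SENP7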
# T7 sequence (Q9BQF6 whole entry): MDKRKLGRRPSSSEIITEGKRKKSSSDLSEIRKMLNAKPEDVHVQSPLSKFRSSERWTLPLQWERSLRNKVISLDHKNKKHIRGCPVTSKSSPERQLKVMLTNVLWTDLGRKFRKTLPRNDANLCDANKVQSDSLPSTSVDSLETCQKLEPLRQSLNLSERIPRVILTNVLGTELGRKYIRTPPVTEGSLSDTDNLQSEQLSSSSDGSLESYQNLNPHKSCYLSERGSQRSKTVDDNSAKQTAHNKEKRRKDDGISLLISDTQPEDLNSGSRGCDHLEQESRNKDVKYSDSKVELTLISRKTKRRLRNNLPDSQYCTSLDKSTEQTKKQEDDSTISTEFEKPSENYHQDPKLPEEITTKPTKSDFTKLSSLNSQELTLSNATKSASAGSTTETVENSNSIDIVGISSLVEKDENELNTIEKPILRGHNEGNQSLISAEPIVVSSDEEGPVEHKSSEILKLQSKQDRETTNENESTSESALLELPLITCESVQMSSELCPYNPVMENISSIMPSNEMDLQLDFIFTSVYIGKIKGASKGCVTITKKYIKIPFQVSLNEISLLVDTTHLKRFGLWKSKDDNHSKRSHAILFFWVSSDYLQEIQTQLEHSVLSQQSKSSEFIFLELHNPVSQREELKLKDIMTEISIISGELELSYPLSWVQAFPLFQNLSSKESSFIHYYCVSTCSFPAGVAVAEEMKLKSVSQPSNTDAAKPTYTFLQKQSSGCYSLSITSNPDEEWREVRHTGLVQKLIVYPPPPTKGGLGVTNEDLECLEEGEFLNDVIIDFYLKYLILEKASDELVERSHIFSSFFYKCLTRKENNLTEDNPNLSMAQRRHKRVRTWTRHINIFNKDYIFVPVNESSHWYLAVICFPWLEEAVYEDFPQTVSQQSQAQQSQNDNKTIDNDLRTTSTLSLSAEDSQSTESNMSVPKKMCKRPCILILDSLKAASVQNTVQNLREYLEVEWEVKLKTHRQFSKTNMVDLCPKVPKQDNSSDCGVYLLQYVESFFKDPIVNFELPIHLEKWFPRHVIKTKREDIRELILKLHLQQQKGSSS
# Genome polyprotein = Genome polyprotein (dengue virus type 2, UniProt P29990); assay: flavivirus cap methylation enzyme inhibition – biochemical, confirmation dose response, primary screen (AID 588689); format: functional
# Genome polyprotein, sequence (P29990 2492-3391 limits assumed): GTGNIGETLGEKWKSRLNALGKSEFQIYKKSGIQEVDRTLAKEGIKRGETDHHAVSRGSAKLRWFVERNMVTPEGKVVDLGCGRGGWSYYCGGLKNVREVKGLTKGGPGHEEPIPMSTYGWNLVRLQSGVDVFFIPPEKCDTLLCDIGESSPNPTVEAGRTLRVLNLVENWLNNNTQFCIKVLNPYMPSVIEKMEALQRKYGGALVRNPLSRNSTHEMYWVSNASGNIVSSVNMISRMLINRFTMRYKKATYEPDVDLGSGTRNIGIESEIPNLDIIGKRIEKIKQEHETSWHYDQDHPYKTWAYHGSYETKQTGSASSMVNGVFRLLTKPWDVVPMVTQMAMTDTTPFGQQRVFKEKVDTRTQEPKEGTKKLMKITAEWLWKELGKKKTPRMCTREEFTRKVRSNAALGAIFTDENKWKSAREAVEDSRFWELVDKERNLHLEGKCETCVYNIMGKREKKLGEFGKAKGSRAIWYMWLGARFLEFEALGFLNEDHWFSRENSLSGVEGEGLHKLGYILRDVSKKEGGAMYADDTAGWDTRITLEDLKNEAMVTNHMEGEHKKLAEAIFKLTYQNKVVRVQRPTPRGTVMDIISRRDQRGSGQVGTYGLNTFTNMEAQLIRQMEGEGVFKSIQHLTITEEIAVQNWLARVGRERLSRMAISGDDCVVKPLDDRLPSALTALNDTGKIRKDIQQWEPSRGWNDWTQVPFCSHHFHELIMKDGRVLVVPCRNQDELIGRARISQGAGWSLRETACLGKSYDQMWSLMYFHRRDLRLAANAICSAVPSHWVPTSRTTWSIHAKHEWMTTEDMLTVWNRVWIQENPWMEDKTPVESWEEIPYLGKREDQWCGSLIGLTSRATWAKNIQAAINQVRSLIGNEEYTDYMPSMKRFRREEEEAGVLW
# [10] = Luminescence Cell-Based Dose Retest to Confirm Inhibitors of Cancer Stem Cells. [Related pubchem assays (depositor defined):AID2717, AID2721]; format: functional; settings: Homo sapiens
# CHO = CHO cell viability loss, potency – luminescence, cytotoxicity control for TLR9-MyD88 binding inhibitor project, dose response (AID 588339); format: functional, cell-based, hamster; settings: Cricetulus griseus;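 also: CHO cells stably coexpressing TLR9 and MyD88 fusions from primary screen; compound exposure lasted 48 hours before viability readout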
# Beta Lactamase = Beta Lactamase (Pseudomonas aeruginosa, UniProt Q932Y6); assay: BLA reporter interference, concentration series – BLA reporter cells, FRET fluorescence, artefact control for TLR9-MyD88 binding inhibitor project, dose response (AID 588341); format: cell-based;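 also: cell based assay in CHO-K1 cells stably expressing beta-lactamase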
# Beta Lactamase, sequence (Q932Y6 whole entry): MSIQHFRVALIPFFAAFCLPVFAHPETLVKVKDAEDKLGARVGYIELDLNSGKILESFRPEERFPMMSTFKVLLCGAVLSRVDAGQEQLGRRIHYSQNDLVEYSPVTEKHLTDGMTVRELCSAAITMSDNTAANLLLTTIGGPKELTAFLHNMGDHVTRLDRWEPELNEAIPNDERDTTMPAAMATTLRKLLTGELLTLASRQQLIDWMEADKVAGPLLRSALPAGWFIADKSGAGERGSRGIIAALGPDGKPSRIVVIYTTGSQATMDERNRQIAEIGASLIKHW
# [11] = microbe, parasite or virus in culture; format: functional; settings: Mycobacterium tuberculosis
compound,measurement,setting,value
CCC[N+](CC#Cc1ccccc1)(CCC)CC(=O)c1ccc(Cl)cc1,IC50,[1],> 40 µM (not active)
same,EC50,Beta-galactosidase,> 40 µM (inactive)
O=C(O)c1cc(NN=C2c3ccccc3-c3ccccc32)ccc1Cl,IC50,Phospholipase A2,9.27 µM (active)
same,IC50,Cysteine protease ATG4B,9.33 µM (active)
same,EC50,[2],2.99 µM (active)
COc1ccccc1CNCC(O)Cn1c2ccccc2c2ccccc21 (stereo not given),AC50,A-375,19.2 µM (active)
same,AC50,[3],18.7 µM (active)
same,EC50,[4],12.2 µM (inactive)
same,EC50,[5],8.31 µM (active)
same,EC50,[6],8.09 µM (active)
same,AC50,INS1,11.2 µM (active)
O=C(Nc1ccc(Br)cn1)c1ccc(Br)s1,IC50,Caspase-3,20.4 µM (active)
same,IC50,[7],> 100 µM (inactive)
same,IC50,[8],> 100 µM (inactive)
same,IC50,[9],6.53 µM (active)
O=C(CSc1nnc(COc2ccc(Cl)cc2)n1Cc1ccco1)c1ccccc1F,IC50,Phospholipase A2,55.7 µM (inactive)
same,IC50,Cysteine protease ATG4B,2.36 µM (active)
N#Cc1c([N+](=O)[O-])cc([N+](=O)[O-])cc1S(=O)(=O)Cc1ccccc1,IC50,Genome polyprotein,> 100 µM (active)
same,AC50,[10],1.61 µM (active)
same,IC50,CHO,1.6 µM (active)
same,AC50,INS1,3.59 µM (active)
same,IC50,Beta Lactamase,12.1 µM (inactive)
same,CC50,[11],> 40 µM (active)
O=C1N=C(NS(=O)(=O)Cc2ccccc2)S/C1=C/c1cc([N+](=O)[O-])ccc1O,IC50,[1],39.9 µM (not active)
same,EC50,Beta-galactosidase,> 40 µM (inactive)
